From US11986000B2, “Whey protein extracts and their use as sphingomyelin source” (SOCIETE DES PRODUITS NESTLE S.A., priority 2017, dated 2024)

Test: Determination of total SM in raw materials and finished product by HPLC-ELSD
Conditions: analysed versus theoretical SM in infant formula powders
Procedure: 1.2. Determination of Total SM in Raw Materials and Finished Product by HPLC-ELSD
Calibration standard stock solution was prepared by dissolving 140 mg of certified milk lecithin and 10 mg of PG (internal standard) in 100 mL of chloroform/methanol (9/1, v/v) solution. Further dilutions of this solution was performed in chloroform/methanol (9/1, v/v) to yield six standard levels, ranging from 0.012 to 0.249 g L−1 for SM and 0.005 to 0.100 g L^−1 for PG.
Sample extraction and chromatographic analysis, including chromatography columns and detector settings, were completed according to the procedure as described by Braun et al. (2010) with the following minor modifications. […] EZChrom software package (Agilent Technologies) was used to control the chromatograph and results were analysed using OpenLab software (Agilent Technologies).
SM was identified within the certified milk lecithin based on peak location in the elution sequence, retention time and characteristic peak shape, as described by Braun et al. (2010). […] A six-point calibration curve was prepared for both SM ([…], R^2=:=::0.996) and PG (0.025-0.507 g L^−1, R^2=:=::0.996) for quantification. […] Quantification of SM was as described by Braun et al. (2010) using the following equation: […]

## sphingomyelin [SM]
  Stability of SM during the manufacturing processes: stable against degradation
